Target: T1, human DGAT1 (Homo sapiens, UniProt O75907)
T1 construct: made in house; host or cells: Sf9 insect cells (recombinant baculovirus); membrane fraction
T1 sequence (O75907 1-488): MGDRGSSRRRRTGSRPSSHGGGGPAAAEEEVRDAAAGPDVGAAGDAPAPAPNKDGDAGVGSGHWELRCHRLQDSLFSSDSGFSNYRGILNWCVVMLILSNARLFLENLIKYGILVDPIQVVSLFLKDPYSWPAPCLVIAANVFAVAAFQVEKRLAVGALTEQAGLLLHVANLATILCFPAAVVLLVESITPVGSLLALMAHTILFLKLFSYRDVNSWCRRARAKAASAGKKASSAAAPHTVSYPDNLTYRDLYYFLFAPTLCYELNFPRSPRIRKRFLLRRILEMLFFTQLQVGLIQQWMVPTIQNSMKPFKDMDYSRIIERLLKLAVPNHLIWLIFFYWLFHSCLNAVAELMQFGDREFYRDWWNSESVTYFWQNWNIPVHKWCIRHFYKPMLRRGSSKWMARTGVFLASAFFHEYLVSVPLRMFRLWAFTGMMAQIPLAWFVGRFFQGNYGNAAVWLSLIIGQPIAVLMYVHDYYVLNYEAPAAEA
Assay: Human enzyme assay, further developed assay (14C oleoyl CoA, 96 well plate)
Format: biochemical
Settings: human DGAT1 expressed in insect cell (sf9) membranes
Procedure: The in vitro assay to identify DGAT1 inhibitors uses human DGAT1 expressed in insect cell membranes as the enzyme source (Proc. Natl. Acad. Sci. 1998, 95, 13018-13023). Briefly, sf9 cells were infected with recombinant baculovirus containing human DGAT1 coding sequences and harvested after 48 h. Cells were lysed by sonication and membranes isolated by centrifuging at 28000 rpm for 1 h at 4° C. on a 41% sucrose gradient. The membrane fraction at the interphase was collected, washed, and stored in liquid nitrogen.
In a further developed assay, DGAT1 activity was assayed by a modification of the method described by Coleman (Methods in Enzymology 1992, 209, 98-102). Compound at 0.00003-10 μM (final cone) was incubated with 25 μg/ml (final cone) membrane protein, 5 mM MgCl2, and 100 μM 1,2 dioleoyl-sn-glycerol in a total assay volume of 200 μl in a 96 well plate. The reaction was started by adding ^14C oleoyl coenzyme A (30 μM final concentration) and incubated at room temperature for 30 minutes. The reaction was stopped by adding 300 μl 2-propanol:heptane 7:1. Radioactive triolein product was separated into the organic phase by adding 200 μl heptane and 200 μl 0.1 M carbonate buffer pH 9.5. DGAT1 activity was quantified by counting aliquots of the upper heptane layer by liquid scintillography.

Structure (SMILES) | IC50 [µM]
O=C(Nc1ccc(O[C@H]2CC[C@H](C(=O)O)CC2)nc1)c1nnc(Nc2ccc(OC(F)(F)F)cc2)o1 [Example 25, (1r,4r)-4-(5-(5-(4-(trifluoro-methoxy)phenylamino)-1,3,4-oxadiazole-2-carboxamido)pyridin-2-yloxy)cyclo-hexane-carboxylic acid] | 0.052
O=C(Nc1ccc(O[C@H]2CC[C@H](C(=O)O)CC2)nc1)c1nnc(Nc2ccc(F)c(Cl)c2)o1 [Example 24, (1r,4r)-4-(5-(5-(3-chloro-4-fluoro-phenylamino)-1,3,4-oxadiazole-2-carboxamido)pyridin-2-yloxy)cyclo-hexane-carboxylic acid] | 0.02
COc1cc(Cl)ccc1Nc1nnc(C(=O)Nc2ccc(O[C@H]3CC[C@@H](C(=O)O)CC3)nc2)o1 [Example 71, (1s,4s)-4-(5-(5-(4-Chloro-2-methoxyphenylamino)-1,3,4-oxadiazole-2-carboxamido)pyridin-2-yloxy)cyclohexanecarboxylic acid] | 0.034
O=C(Nc1ccc(O[C@H]2C[C@@H](C(=O)O)C2)nc1)c1nnc(Nc2ccc(F)c(F)c2)o1 [Example 65, cis-3-(5-(5-(3,4-difluorophenylamino)-1,3,4-oxadiazole-2-carboxamido)pyridin-2-yloxy)cyclobutanecarboxylic acid] | 0.026
O=C(Nc1ccc(O[C@H]2CC[C@@H](C(=O)O)CC2)nc1)c1nnc(Nc2cccc(Cl)c2Cl)o1 [Example 14, (1s,4s)-4-(5-(5-(2,3-dichlorophenylamino)-1,3,4-oxadiazole-2-carboxamido)pyridin-2-yloxy)cyclohexanecarboxylic acid] | 0.011
O=C(Nc1cnc(O[C@H]2CC[C@@H](C(=O)O)CC2)c(F)c1)c1nnc(Nc2ccc(F)c(F)c2)o1 [Example 60, (1s,4s)-4-(5-(5-(3,4-Difluorophenylamino)-1,3,4-oxadiazole-2-carboxamido)-3-fluoropyridin-2-yloxy)cyclohexanecarboxylic acid] | 0.014
O=C(Nc1cnc(O[C@H]2CC[C@@H](C(=O)O)CC2)c(F)c1)c1nnc(Nc2ccc(F)c(Cl)c2)o1 [Example 61, (1s,4s)-4-(5-(5-(3-Chloro-4-fluorophenylamino)-1,3,4-oxadiazole-2-carboxamido)-3-fluoropyridin-2-yloxy)cyclohexanecarboxylic acid] | 0.019
O=C(Nc1ccc(O[C@H]2CC[C@H](C(=O)O)CC2)nc1)c1nnc(Nc2ccc(Br)cc2Cl)o1 [Example 33, (1r,4r)-4-(5-(5-(4-bromo-2-chloro-phenylamino)-1,3,4-oxadiazole-2-carboxamido)pyridin-2-yloxy)cyclo-hexane-carboxylic acid] | 0.022
O=C(Nc1ccc(O[C@H]2CC[C@@H](C(=O)O)CC2)nc1)c1nnc(Nc2ccc(OC(F)(F)F)cc2)o1 [Example 11, (1s,4s)-4-(5-(5-(4-(trifluoromethoxy)phenylamino)-1,3,4-oxadiazole-2-carboxamido)pyridin-2-yloxy)cyclohexanecarboxylic acid] | 0.0072
COc1nc(O[C@H]2CC[C@@H](C(=O)O)CC2)ccc1NC(=O)c1nnc(Nc2ccc(F)c(F)c2)o1 [Example 51, (1s,4s)-4-(5-(5-(3,4-Difluorophenylamino)-1,3,4-oxadiazole-2-carboxamido)-6-methoxypyridin-2-yloxy)cyclohexanecarboxylic acid] | 0.029
O=C(O)c1ccc(Oc2ccc(NC(=O)c3nnc(Nc4ccc(F)c(F)c4)o3)cn2)cc1 [Example 38, 4-(5-(5-(3,4-Difluorophenylamino)-1,3,4-oxadiazole-2-carboxamido)-Pyridin-2-yloxy)benzoic acid] | 0.0054
O=C(Nc1cnc(O[C@H]2CC[C@@H](C(=O)O)CC2)cc1F)c1nnc(Nc2cc(F)c(F)cc2F)o1 [Example 58, (1s,4s)-4-(4-Fluoro-5-(5-(2,4,5-trifluorophenylamino)-1,3,4-oxadiazole-2-carboxamido)pyridin-2-yloxy)cyclohexanecarboxylic acid] | 0.0061
O=C(Nc1ccc(O[C@@H]2CC[C@@H](C(=O)O)C2)nc1)c1nnc(Nc2ccc(F)c(F)c2)o1 [Example 49, (1R,3R)-3-(5-(5-(3,4-Difluorophenylamino)-1,3,4-oxadiazole-2-carboxamido)pyridin-2-yloxy)cyclopentanecarboxylic acid] | 0.018
Cc1cc(OC2CCC(C(=O)O)CC2)ncc1NC(=O)c1nnc(Nc2ccc(Cl)c(F)c2)o1 (centres unmarked) [Example 42, (1s,4s)-4-(5-(5-(4 - Chloro-3-fluorophenylamino)-1,3,4-oxadiazole-2-carboxamido)-4-methylpyridin-2-yloxy) cyclohexanecarboxylic acid] | 0.0011
O=C(Nc1ccc(O[C@H]2CC[C@H](C(=O)O)CC2)nc1)c1nnc(Nc2cccc(Cl)c2Cl)o1 [Example 28, (1r,4r)-4-(5-(5-(2,3-dichloro-phenylamino)-1,3,4-oxadiazole-2-carboxamido)pyridin-2-yloxy)cyclo-hexane-carboxylic acid] | 0.016
O=C(Nc1ccc(O[C@H]2CC[C@@H](C(=O)O)CC2)nc1F)c1nnc(Nc2cc(F)c(F)cc2F)o1 [Example 70, (1s,4s)-4-(6-Fluoro-5-(5-(2,4,5-trifluorophenylamino)-1,3,4-oxadiazole-2-carboxamido)pyridin-2-yloxy)cyclohexanecarboxylic acid] | 0.0041

The remaining compounds from weak to strong by IC50, led by results:

IC50 [µM] | Structure (SMILES)
0.087 | O=C(Nc1ccc(O[C@H]2CC[C@H](C(=O)O)CC2)nc1)c1nnc(Nc2cc(C(F)(F)F)c(F)cc2F)o1 [Example 35]
0.058 | Cc1nc(O[C@H]2CC[C@@H](C(=O)O)CC2)ccc1NC(=O)c1nnc(Nc2ccc(F)c(F)c2)o1 [Example 62, (1s,4s)-4-(5-(5-(3,4-Difluorophenylamino)-1,3,4-oxadiazole-2-carboxamido)-6-methylpyridin-2-yloxy)cyclohexanecarboxylic acid]
0.031 | O=C(Nc1ccc(O[C@H]2CC[C@@H](C(=O)O)CC2)nc1)c1nnc(Nc2cc(C(F)(F)F)c(F)cc2F)o1 [Example 5, (1s,4s)-4-(5-(5-(2,4-difluoro-5-(trifluoromethyl)phenylamino)-1,3,4-oxadiazole-2-carboxamido)pyridin-2-yloxy)cyclohexanecarboxylic acid]
0.023 | O=C(Nc1ccc(O[C@H]2CC[C@@H](C(=O)O)CC2)nc1)c1nnc(Nc2cccc(OC(F)(F)F)c2)o1 [Example 6, (1s,4s)-4-(5-(5-(3-(trifluoromethoxy)phenylamino)-1,3,4-oxadiazole-2-carboxamido)pyridin-2-yloxy)cyclohexanecarboxylic acid]
0.0096 | O=C(O)C[C@H]1CC[C@@H](Oc2ccc(NC(=O)c3nnc(Nc4ccc(F)c(F)c4)o3)cn2)CC1 [Example 36, 2-((1s,4s)-4-(5-(5-(3,4-difluorophenylamino)-1,3,4-oxadiazole-2-carboxamido)pyridin-2-yloxy)cyclohexyl)acetic acid]
0.0075 | O=C(O)c1ccc(Oc2ccc(NC(=O)c3nnc(Nc4ccc(F)c(Cl)c4)o3)cn2)cc1 [Example 39, 4-(5-(5-(3-Chloro-4-fluorophenylamino)-1,3,4-oxadiazole-2-carboxamido)pyridin-2-yloxy)benzoic acid]
0.0035 | Cc1cc(O[C@H]2CC[C@@H](C(=O)O)CC2)ncc1NC(=O)c1nnc(Nc2ccc(F)c(F)c2)o1 [Example 40, (1s,4s)-4-(5-(5-(3,4-Difluorophenylamino)-1,3,4-oxadiazole-2-carboxamido)-4-methylpyridin-2-yloxy)cyclohexanecarboxylic acid]

Source: patent US20110092547A1 (priority 2007, published 2011)
